# Measured values published in patent US10208033B2, “β-carboline, dihydro-β-carboline and tetrahydro-β-carboline alkaloid derivatives and preparation methods same and use in aspects of preventing and treating plant viruses, fungicides and insecticides” (NANKAI UNIVERSITY, priority 2013, dated 2019).
# Key:
# [1] = tested on: tobacco mosaic virus (TMV); experiment: Anti-TMV in vitro effect (half-leaf soaking); type: cell-based, tobacco mosaic virus (host Nicotiana tabacum L.cv.Xanthi NN)
# [2] = tested on: tobacco mosaic virus (TMV); experiment: Anti-TMV in vivo inactivation; design: species or system tobacco mosaic virus (host Nicotiana tabacum L.cv.Xanthi NN)
# [3] = tested on: tobacco mosaic virus (TMV); experiment: Anti-TMV in vivo therapeutic effect; design: species or system tobacco mosaic virus (host Nicotiana tabacum L.cv.Xanthi NN)
# [4] = tested on: tobacco mosaic virus (TMV); experiment: Anti-TMV in vivo protective effect; design: species or system tobacco mosaic virus (host Nicotiana tabacum L.cv.Xanthi NN)
# cucumber fusarium wilt = experiment: Fungicidal (bactericidal) activity in vitro, PDA colony diameter; type: cell-based; settings: 50 mg/kg
# Cercospora arachidicola = experiment: as above; type: cell-based; settings: 50 mg/kg
# Macrophoma kawatsukai = experiment: as above; type: cell-based; settings: 50 mg/kg
# Alternaria solani = experiment: as above; type: cell-based; settings: 50 mg/kg
# Fusarium graminearumt = experiment: microbe, parasite or virus in culture; type: cell-based; settings: 50 mg/kg
# potato late blight = experiment: microbe, parasite or virus in culture; type: cell-based
# Sclerotinia scleotiorum = experiment: Fungicidal (bactericidal) activity in vitro, PDA colony diameter; type: cell-based; settings: 50 mg/kg
# Botrytis cinerea = experiment: as above; type: cell-based; settings: 50 mg/kg
# Rhizoctonia solani = experiment: as above; type: cell-based; settings: 50 mg/kg
# Phytophthora capsici = experiment: as above; type: cell-based; settings: 50 mg/kg
# Fusarium fujikuroi = experiment: as above; type: cell-based; settings: 50 mg/kg
# Rhizoctonia cereali = experiment: as above; type: cell-based; settings: 50 mg/kg
# Bipolaria maydis = experiment: organism not typed; type: cell-based; settings: 50 mg/kg
# [5] = tested on: Colletotrichum orbiculare; experiment: Fungicidal (bactericidal) activity in vitro, PDA colony diameter; type: cell-based; settings: 50 mg/kg
# armyworms = type: in vivo; settings: concentration 600 mg/kg
# cotton bollworms = experiment: whole plant or invertebrate; settings: concentration 600 mg/kg
# Protocol: Experimental method of cotton bollworms: feed and drug mixing method: measure 3 mL of prepared solution and add it to about 27 g of newly prepared feed, thereby obtaining needed concentration through dilution by 10 times.
# mosquito larvae = experiment: whole plant or invertebrate; settings: 24 h
# Outline: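 Compound dissolved in acetone (or other solvent) to a 1000 ppm stock and diluted in water to 5 ppm. Ten Culex pipiens pallens larvae at the start of the fourth instar, laboratory-reared, added per beaker; solvent-only aqueous control.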
# [6] = tested on: tobacco mosaic virus (TMV); experiment: Anti-TMV activity, overall statements on Table 1; type: in vivo, tobacco mosaic virus (host Nicotiana tabacum L.cv.Xanthi NN); settings: 100 μg/mL versus ningnanmycin at 100 μg/mL
# corn borers = settings: concentration 600 mg/kg
SMILES,Relative inhibition rate (%) In vitro activity ([1]; treatment dose 100 μg/mL),Relative inhibition rate (%) In vitro activity ([1]; treatment dose 500 μg/mL),Relative inhibition rate (%) In vivo inactivation ([2]; treatment dose 100 μg/mL),Relative inhibition rate (%) In vivo inactivation ([2]; treatment dose 500 μg/mL),Relative inhibition rate (%) In vivo therapy ([3]; treatment dose 100 μg/mL),Relative inhibition rate (%) In vivo therapy ([3]; treatment dose 500 μg/mL),Relative inhibition rate (%) In vivo protection ([4]; treatment dose 100 μg/mL),Relative inhibition rate (%) In vivo protection ([4]; treatment dose 500 μg/mL),Bactericidal activity (%) Cucumber fusarium wilt (cucumber fusarium wilt),Bactericidal activity (%) Cercospora arachidicola (Cercospora arachidicola),Bactericidal activity (%) Macrophoma kawatsukai (Macrophoma kawatsukai),Bactericidal activity (%) Alternaria solani (Alternaria solani),Bactericidal activity (%) Fusarium graminearumt (Fusarium graminearumt),Bactericidal activity (%) potato late blight (potato late blight),Bactericidal activity (%) Sclerotinia scleotiorum (Sclerotinia scleotiorum),Bactericidal activity (%) Botrytis cinerea (Botrytis cinerea),Bactericidal activity (%) Rhizoctonia solani (Rhizoctonia solani),Bactericidal activity (%) Phytophthora capsici (Phytophthora capsici),Bactericidal activity (%) Fusarium fujikuroi (Fusarium fujikuroi),Bactericidal activity (%) Rhizoctonia cereali (Rhizoctonia cereali),other results
"C[C@@H]1N[C@H](C(=O)NN=Cc2cccs2)Cc2c1[nH]c1ccccc21 [Ic-20, (1S, 3S)—N′-(thiophene-2-methylene)-1-methyl-2,3,4,9-tetrahydropyridino [3,4-b] indol-3-formylhydrazine]",23%,58.5%,29.6%,59.1%,25.1%,52.3%,31.8%,61.3%,26.9%,47.1%,55.6%,45.0%,62.1%,36.0%,88.2%,72.7%,46.1%,68.4%,28.6%,72.5%,Bactericidal activity (%) Bipolaria maydis (Bipolaria maydis): 44.0%; Bactericidal activity (%) Colletotrichum orbiculare [5]: 44.4%; Armyworm Mortality (%) (armyworms): 35%; Cotton bollworm Mortality (%) (cotton bollworms): 20%; Mosquito larvae Mortality (%) (mosquito larvae; concentration 10 mg/kg): 75%; anti-TMV activity compared with ningnanmycin [6]: equivalent to the activity of commercial variety ningnanmycin; Corn borer Mortality (%) (corn borers): 30%
"CC(=NNC(=O)[C@@H]1Cc2c([nH]c3ccccc23)[C@H](C)N1)C(C)(C)C [Ic-28, (1S, 3S)—N′-(3,3-dimethyl-2-butylidene)-1-methyl-2,3,4,9-tetrahydropyridino [3,4-b] indol-3-formylhydrazine]",25.6%,58.1%,21.3%,59.7%,16.7%,55.4%,18.9%,56.8%,4.5%,36.4%,36.4%,14.3%,53.8%,30.4%,3.8%,41.7%,8.3%,18.2%,23.5%,48.6%,Bactericidal activity (%) Bipolaria maydis (Bipolaria maydis): 28.0%; Bactericidal activity (%) Colletotrichum orbiculare [5]: 32.0%; Armyworm Mortality (%) (armyworms): 45%; Cotton bollworm Mortality (%) (cotton bollworms): 45%; Mosquito larvae Mortality (%) (mosquito larvae; concentration 5 mg/kg): 20%; Mosquito larvae Mortality (%) (mosquito larvae; concentration 10 mg/kg): 100%; anti-TMV activity compared with ningnanmycin [6]: equivalent to the activity of commercial variety ningnanmycin; Corn borer Mortality (%) (corn borers): 40%
"C[C@@H]1N[C@H](C(=O)NNC(=O)C(C)(C)C)Cc2c1[nH]c1ccccc21 [Id-6, (1S, 3S)—N′-tert-valeryl-1-methyl-2,3,4,9-tetrahydropyridino [3,4-b] indol-3-formylhydrazine]",8.9%,45.7%,12.8%,44%,14.2%,42.1%,16.9%,47.5%,4.5%,9.1%,42.4%,14.3%,30.8%,26.1%,17.3%,50.0%,5.6%,12.1%,29.4%,10.8%,Bactericidal activity (%) Bipolaria maydis (Bipolaria maydis): 20.0%; Bactericidal activity (%) Colletotrichum orbiculare [5]: 24.0%; Armyworm Mortality (%) (armyworms): 35%; Cotton bollworm Mortality (%) (cotton bollworms): 25%; Mosquito larvae Mortality (%) (mosquito larvae; concentration 10 mg/kg): 65%; anti-TMV activity compared with ningnanmycin [6]: equivalent to the activity of commercial variety ningnanmycin; Corn borer Mortality (%) (corn borers): 50%
